From patent US9624166B2, “Tetracycline compounds” (Tetraphase Pharmaceuticals, Inc., priority 2009, dated 2017)

Columns and labels:
[1] = system: S. aureus ATCC 13709 (Smith); assay: Murine systemic infection (septicemia) model with intraperitoneal challenge of S. aureus; type: in vivo; details: CD-1 female mice, i.v. one hour post-challenge, SA Smith septicemia, survival after 48 hours, Probit analysis
Experimental: Murine Systemic Infection Model with Intraperitoneal Challenge of S. aureus
In the model, CD-1 female mice (18-20 grams) were injected intraperitoneally with S. aureus ATCC 13709 (Smith) (1-2×10^6/mouse) mixed with 5% hog gastric mucin, a bacterial inoculum previously established through virulence studies required to achieve 90-100% lethality within 24-48 hours. Typically, six mice were treated intravenously per dose group one hour post-challenge with either compound 101, compound 105, compound 145, compound 153, compound 166, and compound 218, tetracycline or tigecycline at doses ranging from 0.05-10 mg/kg. After 48 hours, percent survival was calculated and the dose (mg/kg) effecting 50% survival, the protective dose 50% (PD50), was reported along as calculated by Probit analysis.
The PD50 values of compound 101, compound 105, compound 145, compound 153, compound 166, and compound 218 and comparators tigecycline and tetracycline in the S. aureus ATCC 13709 mouse septicemia model are described in Table 6.

[2] = system: K. pneumoniae ATCC 13883 (KP109, wt); assay: MIC assay, KP109; type: cell-based; details: numeric MIC of control compounds
Experimental: (§1) Minimum Inhibitory Concentration (MIC) Assay
(§2) MICs were determined according to the Clinical and Laboratory Standards Institute (CLSI) guidances (e.g., CLSI. Performance standards for antimicrobial susceptibility testing; nineteenth information supplement. CLSI document M100-S19, CLSI, 940 West Valley Road, Suite 1400, Wayne, Pa. 19087-1898, USA, 2009). Briefly, frozen bacterial strains were thawed and subcultured onto Mueller Hinton Broth (MHB) or other appropriate media (Streptococcus requires blood and Haemophilus requires hemin and NAD). Following incubation overnight, the strains were subcultured onto Mueller Hinton Agar and again incubated overnight. […] Isolated colonies were selected to prepare a starting inoculum equivalent to a 0.5 McFarland standard. The starting inoculum was diluted 1:125 using MHB for further use. Test compounds were prepared by dilution in sterile water to a final concentration of 5.128 mg/mL. Antibiotics (stored frozen, thawed and used within 3 hours of thawing) and compounds were further diluted to the desired working concentrations.
(§3) The assays were run as follows. Fifty μL of MHB was added to wells 2-12 of a 96-well plate. One hundred μL of appropriately diluted antibiotics was added to well 1. Fifty μL of antibiotics was removed from well 1 and added to well 2 and the contents of well 2 mixed by pipetting up and down five times. Fifty μL of the mixture in well 2 was removed and added to well 3 and mixed as above. Serial dilutions were continued in the same manner through well 12. Fifty μL was removed from well 12 so that all contained 50 μL. Fifty μL of the working inoculum was then added to all test wells. A growth control well was prepared by adding 50 μL of working inoculum and 50 μL of MHB to an empty well. The plates were then incubated at 37° C. overnight, removed from the incubator and each well was read on a plate reading mirror. The lowest concentration (MIC) of test compound that inhibited the growth of the bacteria was recorded.
(§4) Fifteen bacterial strains, listed below, were examined in minimum inhibitory concentration (MIC) assays.

[3] = system: A. baumanii ATCC 19606 (AB110, wt); assay: MIC assay, AB110; type: cell-based; details: numeric MIC of control compounds
Experimental: as §1, §2, §3, §4

[4] = system: E. coli ATCC 25922 (EC107, wt, control); assay: MIC assay, EC107; type: cell-based; details: numeric MIC of control compounds
Experimental: as §1, §2, §3, §4

[5] = system: P. aeruginosa ATCC 27853 (PA111, wt, control); assay: MIC assay, PA111; type: cell-based; details: numeric MIC of control compounds
Experimental: as §1, §2, §3, §4

[6] = system: E. cloacae ATCC 13047 (EC108, wt); assay: MIC assay, EC108; type: cell-based; details: numeric MIC of control compounds
Experimental: as §1, §2, §3, §4

SMILES | PD50 (protective dose 50%, dose effecting 50% survival) [1] [mg/kg] | MIC KP109 [2] [µg/mL] | MIC AB110 [3] [µg/mL] | MIC EC107 [4] [µg/mL] | MIC PA111 [5] [µg/mL] | MIC EC108 [6] [µg/mL]
COc1cc(NC(=O)CN2CCCC2)c(O)c2c1C[C@H]1C[C@H]3[C@H](N(C)C)C(O)=C(C(N)=O)C(=O)[C@@]3(O)C(O)=C1C2=O [Compound 101] | 0.36 | – | – | – | – | –
COc1cc(NC(=O)CN(C)C)c(O)c2c1C[C@H]1C[C@H]3[C@H](N(C)C)C(O)=C(C(N)=O)C(=O)[C@@]3(O)C(O)=C1C2=O [Compound 105] | 0.25 | – | – | – | – | –
COc1cc(NS(=O)(=O)c2ccccc2)c(O)c2c1C[C@H]1C[C@H]3[C@H](N(C)C)C(O)=C(C(N)=O)C(=O)[C@@]3(O)C(O)=C1C2=O [Compound 153] | >10 | – | – | – | – | –
COc1cc(NS(=O)(=O)CC(C)C)c(O)c2c1C[C@H]1C[C@H]3[C@H](N(C)C)C(O)=C(C(N)=O)C(=O)[C@@]3(O)C(O)=C1C2=O [Compound 166] | 4.3 | – | – | – | – | –
CCN(C)CC(=O)Nc1cc(OC(F)(F)F)c2c(c1O)C(=O)C1=C(O)[C@]3(O)C(=O)C(C(N)=O)=C(O)[C@@H](N(C)C)[C@@H]3C[C@@H]1C2 [Compound 218] | 1.4 | – | – | – | – | –
CN(C)c1ccc(O)c2c1C[C@H]1C[C@H]3[C@H](N(C)C)C(O)=C(C(N)=O)C(=O)[C@@]3(O)C(O)=C1C2=O [Minocycline] | – | 1 | 0.06 | 0.5 | 16 | 2
CN(C)[C@@H]1C(O)=C(C(N)=O)C(=O)[C@@]2(O)C(O)=C3C(=O)c4c(O)cccc4C[C@H]3C[C@@H]12 [Sancycline] | – | 8 | 0.25 | 8 | > 32 | 8
CN(C)[C@@H]1C(O)=C(C(N)=O)C(=O)[C@@]2(O)C(O)=C3C(=O)c4c(O)cccc4[C@@](C)(O)[C@H]3C[C@@H]12 [Tetracycline, tetracycline] | 1.0 | – | – | – | – | –
CN(C)c1cc(NC(=O)CNC(C)(C)C)c(O)c2c1C[C@H]1C[C@H]3[C@H](N(C)C)C(O)=C(C(N)=O)C(=O)[C@@]3(O)C(O)=C1C2=O [Tigecycline, tigecycline] | 0.97 | 0.125 | 0.25 | 0.03 | 8 | 0.25
